Patent US20120016009A1, “Optimized Methods For Delivery Of DSRNA Targeting The PCSK9 Gene” (priority 2008, published 2012)
In the oligonucleotide strings, read from the 5' end, every base follows the letter of its sugar. An asterisk marks phosphorothioate; unmarked linkages are phosphodiester. Other units and linkages are bracketed, terminal groups are in braces. A string of capitals states the bases alone. [Ab] = 3'-terminal abasic nucleotide; e = 2'-O-(2-methoxyethyl) (MOE); d = 2'-deoxy (DNA); m = 2'-O-methyl; r = 2'-OH (RNA); {P} = phosphate; f = 2'-fluoro

System: PCSK9 mRNA
Assay: In vitro screening of modified dsRNAs targeted to PCSK9 (Table 2b; cell type not given)
Assay type: cell-based
Conditions: 30 nM siRNA
Description: For transfection with siRNA, HuH7, HepG2, or HeLa cells were seeded at a density of 2.0×10^4 cells/well in 96-well plates and transfected directly. Transfection of siRNA (30 nM for single dose screen) was carried out with lipofectamine 2000 (Invitrogen GmbH, Karlsruhe, Germany, cat. No. 11668-019) as described by the manufacturer.
24 hours after transfection HuH7 and HepG2 cells were lysed and PCSK9 mRNA levels were quantified with the Quantigene Explore Kit (Genosprectra, Dumbarton Circle Fremont, USA, cat. No. QG-000-02) according to the protocol. PCSK9 mRNA levels were normalized to GAP-DH mRNA. For each siRNA eight individual datapoints were collected. siRNA duplexes unrelated to PCSK9 gene were used as control. The activity of a given PCSK9 specific siRNA duplex was expressed as percent PCSK9 mRNA concentration in treated cells relative to PCSK9 mRNA concentration in cells treated with the control siRNA duplex.
Tables 1b and 2b (and FIG. 6A) summarize the results and provide examples of in vitro screens in different cell lines at different doses. Silencing of PCSK9 transcript was expressed as percentage of remaining transcript at a given dose.

Row | Substance | Remaining mRNA in % of controls at siRNA conc. of 30 nM
1 | AD-12049: modified dsRNA, SEQ ID NO:1333/1334 (chain 1 rGmCmCmUrGrGrArGmUmUmUrAmUmUmCrGrGrArArArArG; chain 2 rCrUrUrUrUrCrCrGrArArUrArArArCrUrCrCrArGrGrC*mC*mU) | 34%
2 | AD-12044: modified dsRNA, SEQ ID NO:1323/1324 (chain 1 rGrCrCrUrGrGrArGrUrUrUrArUrUrCrGrGrArAdT*dT; chain 2 rUrUmCrCrGrArArUrArArArCrUrCrCrArGrGrCdT*dT) | 7%
3 | AD-12344: modified dsRNA, SEQ ID NO:1387/1388 (chain 1 fGmCfCmUfGmGfAmGfUmUfUmAfUmUfCmGfGmAfAdT*dT; chain 2 rUrUrCrCrGrArArUrArArArCrUrCrCrArGrGrCdT*dT) | 9%
4 | AD-12403: modified dsRNA, SEQ ID NO:1501/1502 (chain 1 rGfCfCfUrGrGrArGrGfUfUfUrAfUfUfCrGrGrArA; chain 2 {P}-fUfUfCfCrGrArAfUrArArAfCfUfCfCrArGrGfC*fC*fU) | 4%
5 | AD-12069: modified dsRNA, SEQ ID NO:1373/1374 (chain 1 rGmCrCmUrGmGrAmGrUmUrUmArUmUrCmGrGmArA; chain 2 rUrUrCrCrGrArArUrArArArCrUrCrCrArGrGrC*mC*mU) | 13%
6 | AD-12390: modified dsRNA, SEQ ID NO:1475/1476 (chain 1 rGfCfCfUrGrGrArGrGfUfUfUrAfUfUfCrGrGrArA; chain 2 rUrUrCrCrGrArArUrArArArCrUrCrCrArGrGrC*mC*mU) | 17%
7 | AD-12048: modified dsRNA, SEQ ID NO:1331/1332 (chain 1 rGmCmCmUrGrGrArGmUmUmUrAmUmUmCrGrGrArArArA; chain 2 rUrUrUrUrCrCrGrArArUrArArArCrUrCrCrArGrGrC*mC*mU) | 43%
8 | AD-12338: modified dsRNA, SEQ ID NO:1375/1376 (chain 1 fGmCfCmUfGmGfAmGfUmUfUmAfUmUfCmGfGmAfA; chain 2 {P}-mUfUmCfCmGfAmAfUmAfAmAfCmUfCmCfAmGfGmC) | 15%
9 | AD-12358: modified dsRNA, SEQ ID NO:1413/1414 (chain 1 GCCUGGAGUUUAUUCGGAA; chain 2 {P}-mUfUmCfCmGfAmAfUmAfAmAfCmUfCmCfAmGfGmC; chain 1: sugars from the 5' end rererererererererer, all phosphodiester, methylation of C and T or U not given here) | 29%
10 | AD-12385: modified dsRNA, SEQ ID NO:1465/1466 (chain 1 GCCUGGNAGUUUAUUCGGAATT; chain 2 {P}-fUfUfCfCrGrArAfUrArArAfCfUfCfCrArGrGfCdT*dT; chain 1: chemistry not given here; further chemistry not fully specified) | 8%
11 | AD-12045: modified dsRNA, SEQ ID NO:1325/1326 (chain 1 rGrCrCrUrGrGrArGrUrUrUrArUrUrCrGrGrArAdT*dT; chain 2 rUrUrCmCrGrArArUrArArArCrUrCrCrArGrGrCdT*dT) | 8%
12 | AD-12043: modified dsRNA, SEQ ID NO:1321/1322 (chain 1 rGrCrCrUrGrGrArGrUrUrUrArUrUrCrGrGrArAdT*dT; chain 2 rUmUrCrCrGrArArUrArArArCrUrCrCrArGrGrCdT*dT) | 13%
13 | AD-12055: modified dsRNA, SEQ ID NO:1345/1346 (chain 1 rGmCmCmUrGrGrArGmUmUmUrAmUmUmCrGrGrArAdT*dT; chain 2 rUrUrCrCrGrArArUrArArArCrUrCrCrArGrGrC*mC*mU) | 13%
14 | AD-12396: modified dsRNA, SEQ ID NO:1487/1488 (chain 1 GCCUGGAGUUUAUUCGGAA; chain 2 UUCCGAAUAAACUCCAGGCCU; chemical modifications, chemistry not fully specified) | 59%
15 | AD-12350: modified dsRNA, SEQ ID NO:1399/1400 (chain 1 fGmCfCmUfGmGfAmGfUmUfUmAfUmUfCmGfGmAfAdTdT[Ab]; chain 2 {P}-mUfUmCfCmGfAmAfUmAfAmAfCmUfCmCfAmGfGmCdTdT[Ab]) | 17%
16 | AD-12056: modified dsRNA, SEQ ID NO:1347/1348 (chain 1 rGmCrCmUrGmGrAmGrUmUrUmArUmUrCmGrGmArA; chain 2 rUrUrCrCrGrArArUrArArArCrUrCrCrArGrGrCdTdT[Ab]) | 11%
17 | AD-12397: modified dsRNA, SEQ ID NO:1489/1490 (chain 1 fGmCfCmUfGmGfAmGfUmUfUmAfUmUfCmGfGmAfA; chain 2 {P}-fUfUfCfCrGrArAfUrArArAfCfUfCfCrArGrGfC*fC*fU) | 20%
18 | AD-12057: modified dsRNA, SEQ ID NO:1349/1350 (chain 1 rGmCrCmUrGmGrAmGrUmUrUmArUmUrCmGrGmArA; chain 2 rUrUrCrCrGrArArUrArArArCrUrCrCrArGrGrCdT*dT) | 8%
19 | AD-12038: modified dsRNA, SEQ ID NO:1311/1312 (chain 1 rGmCmCmUrGrGrArGmUmUmUrAmUmUmCrGrGrArAdT*dT; chain 2 mUrUrCrCrGrArArUrArArArCrUrCrCrArGrGrCdT*dT) | 13%
20 | AD-12339: modified dsRNA, SEQ ID NO:1377/1378 (chain 1 rGmCrCmUrGmGrAmGrUmUrUmArUmUrCmGrGmArA; chain 2 {P}-mUfUmCfCmGfAmAfUmAfAmAfCmUfCmCfAmGfGmC) | 14%
21 | AD-12373: modified dsRNA, SEQ ID NO:1443/1444 (chain 1 GCCUGGAGUUUAUUCGGAATT; chain 2 rUrUrCrCrGrArArUrArArArCrUrCrCrArGrGrCdT*dT; chain 1: DNA at T, 2'-MOE at CU, RNA at AG, linkages o19 s1 (s phosphorothioate, o phosphodiester), methylation of C and T or U not given here) | 55%
22 | AD-12345: modified dsRNA, SEQ ID NO:1389/1390 (chain 1 fGmCfCmUfGmGfAmGfUmUfUmAfUmUfCmGfGmAfAdT*dT; chain 2 rUrUrCrCrGrArArUrArArArCrUrCrCrArGrGrC*mC*mU) | 12%
23 | AD-12380: modified dsRNA, SEQ ID NO:1455/1456 (chain 1 rGfCfCfUrGrGrArGfUfUfUrAfUfUfCrGrGrArAdT*dT; chain 2 {P}-mUfUmCfCmGfAmAfUmAfAmAfCmUfCmCfAmGfGmC*fC*mU) | 8%
24 | AD-12364: modified dsRNA, SEQ ID NO:1425/1426 (chain 1 GCCUGGAGUUUAUUCGGAATT; chain 2 rUrUrCrCrGmAmArUrAmAmArCrUrCrCrAmGmGmCdT*dT; chain 1: sugars from the 5' end rerererererererererdd, linkages o19 s1 (s phosphorothioate, o phosphodiester), methylation of C and T or U not given here) | 25%
25 | AD-12374: modified dsRNA, SEQ ID NO:1445/1446 (chain 1 rGfCfCfUrGrGrArGfUfUfUrAfUfUfCrGrGrArAdT*dT; chain 2 fUfUfCfCrGrArAfUrArArAfCfUfCfCrArGrGfCdT*dT) | 9%
26 | AD-12065: modified dsRNA, SEQ ID NO:1365/1366 (chain 1 rGmCrCmUrGmGrAmGrUmUrUmArUmUrCmGrGmArAdTdT[Ab]; chain 2 rUrUrCrCrGrArAmUrArArArCrUrCmCrArGrGrCdTdT[Ab]) | 16%
27 | AD-12395: modified dsRNA, SEQ ID NO:1485/1486 (chain 1 GCCUGGAGUUUAUUCGGAATT; chain 2 {P}-fUfUfCfCrGrArAfUrArArAfCfUfCfCrArGrGfC*fC*fU; chain 1: sugars from the 5' end rerererererererererdd, linkages o19 s1 (s phosphorothioate, o phosphodiester), methylation of C not given here) | 55%
28 | AD-12040: modified dsRNA, SEQ ID NO:1315/1316 (chain 1 rGmCmCmUrGrGrArGmUmUmUrAmUmUmCrGrGrArAdT*dT; chain 2 rUrUmCrCrGrArArUrArArArCrUrCrCrArGrGrCdT*dT) | 10%
29 | AD-12399: modified dsRNA, SEQ ID NO:1493/1494 (chain 1 GCCUGGNAGUUUAUUCGGAATT; chain 2 {P}-fUfUfCfCrGrArAfUrArArAfCfUfCfCrArGrGfC*fC*fU; chain 1: chemistry not given here; further chemistry not fully specified) | 13%
30 | AD-12384: modified dsRNA, SEQ ID NO:1463/1464 (chain 1 rGmCmCmUrGrGrArGmUmUmUrAmUmUmCrGrGrArAdT*dT; chain 2 {P}-fUfUfCfCrGrArAfUrArArAfCfUfCfCrArGrGfCdT*dT) | 8%
